US9249453B2, “Method for identifying a malodor inhibitor” (Kao Corporation, priority 2011, dated 2016)
Like-named read-outs stand apart in the source and are kept apart here.

What was measured:
Format in all cases: cell-based
OR2W1 = biological target: T1, OR2W1 (Homo sapiens, UniProt Q9Y3N9); test: Luciferase reporter assay: suppression of the skatole response of OR2W1 expressed in HEK293 cells; conditions: for inhibition at 100 µM: read-out: Inhibition rate 2W1
T1 construct: expressed in transfected cells; host or cells: HEK293
T1 sequence (Q9Y3N9 1-320): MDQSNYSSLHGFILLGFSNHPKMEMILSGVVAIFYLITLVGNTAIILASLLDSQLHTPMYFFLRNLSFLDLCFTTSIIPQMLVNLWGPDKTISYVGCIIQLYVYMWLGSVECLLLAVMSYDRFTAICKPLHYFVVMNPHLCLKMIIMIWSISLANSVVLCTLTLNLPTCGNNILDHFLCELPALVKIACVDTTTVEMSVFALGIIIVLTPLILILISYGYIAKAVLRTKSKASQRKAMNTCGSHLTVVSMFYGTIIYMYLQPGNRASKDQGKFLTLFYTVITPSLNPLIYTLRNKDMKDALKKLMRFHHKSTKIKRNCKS
Experimental: (§1) A reaction solution having a composition shown in Table 1 was prepared on a clean bench, and left to stand for 15 minutes. The solution was dispensed to each well of a 96-well plate (BD). Subsequently, HEK293 cells (100 μL, 3×10^5 cells/cm^2) were seeded in each well and cultured for 24 hours in an incubator at 37° C. and under 5% CO2 conditions.
(§2) The olfactory receptor expressed in HEK293 cells activates adenylate cyclase with the aid of Gαs present in cells, to thereby increase intracellular cAMP level. In this study, odorant response was measured by a luciferase reporter gene assay which monitored the intracellular cAMP level as the luminescence value derived from a firefly luciferase gene (fluc2P-CRE-hygro). Also, a Renilla luciferase gene fused downstream of a CMV promoter (hRluc-CMV) was also transfected to HEK293 cells as an internal standard to correct errors in gene transfer efficiency and number of cells.
(§3) Cell culturing was performed for four hours in a CO2-incubator, whereby the luciferase gene sufficiently expressed in the cells. Luciferase activity was measured by means of a Dual-Glo™ luciferase assay system (promega) according to an instruction manual thereof. The luminescence value derived from firefly luciferase induced by odorant stimulation was divided by the luminescence value of cells which were not stimulated with odorants. The thus-obtained—called “fold increase”—was employed as an index for response intensity.
(§4) The response inhibition rate of a test substance was calculated as follows. Firstly, luminescence value derived from firefly luciferase induced by stimulation with skatole (X), and luminescence value in cells which expressed the same receptor but were not stimulated with skatole (Y) were determined. By subtracting Y from X, the receptor activity by stimulation with skatole alone (X−Y) was determined. Similarly, the luminescence value induced by stimulation with a mixture of skatole and a test substance (Z) was determined. Through subtracting Y (the luminescence value in cells which expressed the same receptor but were not stimulated with skatole) from Z, the receptor activity (Z−Y) by stimulation with a mixture of skatole and the test substance was obtained. From the thus-obtained receptor activity by stimulation with skatole alone (X−Y) and the receptor activity in the presence of a test material (Z−Y), the response inhibition rate of the test substance was calculated by the following equation: Inhibition rate (%)={1−(Z−Y)/(X−Y)}×100.
(§5) In each case, multiple independent experiments were performed in duplicate, and the average of each experiment was used.

OR5P3 = biological target: T2, OR5P3 (Homo sapiens, UniProt Q8WZ94); test: Luciferase reporter assay: suppression of the skatole response of OR5P3 expressed in HEK293 cells; conditions: test substance 100 μM mixed with 300 μM skatole, HEK293 cells expressing OR5P3
T2 construct: expressed in transfected cells; host or cells: HEK293
T2 sequence (Q8WZ94 1-311): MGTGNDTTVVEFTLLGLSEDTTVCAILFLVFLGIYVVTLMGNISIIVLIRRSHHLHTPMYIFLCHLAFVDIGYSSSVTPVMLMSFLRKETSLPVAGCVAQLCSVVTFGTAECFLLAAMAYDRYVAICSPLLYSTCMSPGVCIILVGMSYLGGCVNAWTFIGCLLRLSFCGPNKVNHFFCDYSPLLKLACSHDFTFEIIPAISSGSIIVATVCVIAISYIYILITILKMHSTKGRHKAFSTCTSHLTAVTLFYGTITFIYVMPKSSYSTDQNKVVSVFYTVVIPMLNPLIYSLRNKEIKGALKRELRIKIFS
Experimental: as §1, §2, §3, §4, §5

OR5K1 = biological target: T3, OR5K1 (Homo sapiens, UniProt Q8NHB7); test: Luciferase reporter assay: suppression of the skatole response of OR5K1 expressed in HEK293 cells; conditions: for inhibition at 100 µM: read-out: Inhibition rate 5K1
T3 construct: expressed in transfected cells; host or cells: HEK293
T3 sequence (Q8NHB7 1-308): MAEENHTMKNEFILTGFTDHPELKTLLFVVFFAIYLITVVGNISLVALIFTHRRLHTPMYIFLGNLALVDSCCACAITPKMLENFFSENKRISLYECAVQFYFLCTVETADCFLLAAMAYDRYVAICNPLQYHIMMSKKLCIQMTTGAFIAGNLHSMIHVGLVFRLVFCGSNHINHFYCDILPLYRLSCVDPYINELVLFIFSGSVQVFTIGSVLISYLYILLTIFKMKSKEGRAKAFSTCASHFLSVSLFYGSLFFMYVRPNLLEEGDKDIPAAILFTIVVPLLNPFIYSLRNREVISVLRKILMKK
Experimental: as §1, §2, §3, §4, §5

OR8H1 = biological target: T4, OR8H1 (Homo sapiens, UniProt Q8NGG4); test: Luciferase reporter assay: suppression of the skatole response of OR8H1 expressed in HEK293 cells; conditions: for inhibition at 100 µM: read-out: Inhibition rate 8H1
T4 construct: expressed in transfected cells; host or cells: HEK293
T4 sequence (Q8NGG4 1-311): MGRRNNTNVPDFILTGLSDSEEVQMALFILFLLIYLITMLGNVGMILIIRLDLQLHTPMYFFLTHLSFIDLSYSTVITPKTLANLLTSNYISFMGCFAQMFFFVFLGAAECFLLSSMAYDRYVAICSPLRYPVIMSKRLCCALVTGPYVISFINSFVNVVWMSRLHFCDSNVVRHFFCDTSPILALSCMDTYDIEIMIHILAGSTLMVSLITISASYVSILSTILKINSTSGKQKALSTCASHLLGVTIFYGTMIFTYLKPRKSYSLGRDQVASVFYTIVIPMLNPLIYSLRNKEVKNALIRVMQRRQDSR
Experimental: as §1, §2, §3, §4, §5

[1] = 4 h, test substance 100 μM mixed with 300 μM skatole, HEK293 cells expressing OR2W1
[2] = 4 h, test substance 100 μM mixed with 300 μM skatole, HEK293 cells expressing OR5K1
[3] = 4 h, test substance 100 μM mixed with 300 μM skatole, HEK293 cells expressing OR8H1
[4] = test substance 100 μM mixed with 300 μM skatole, HEK293 cells expressing OR5K1
[5] = test substance 100 μM mixed with 300 μM skatole, HEK293 cells expressing OR8H1
[6] = test substance 100 μM mixed with 300 μM skatole, HEK293 cells expressing OR2W1

Compound | inhibition at 100 µM (OR2W1; [1]) | Inhibition rate 5P3 (OR5P3) | inhibition at 100 µM (OR5K1; [2]) | inhibition at 100 µM (OR8H1; [3]) | Inhibition rate 5K1 (OR5K1; [4]) | Inhibition rate 8H1 (OR8H1; [5]) | also measured
Cc1ccc(C(C)C)c(O)c1 [thymol, 5-Methyl-2-(1-methylethyl)-phenol] | 20 to 50% | A (A >80%) | > 80% | 20 to 50% |  |  | 
2,6-Dimethyl-2-octanol/3,7-Dimethyl-3-octanol [tetrahydromugol] |  | C (C >20%) |  |  | C (C >20%) | C (C >20%) | 
Hexahydro-4,7-methanoinden-5(6)-yl acetate [tricyclodecenyl acetate] |  | C (C >20%) |  |  | C (C >20%) | B (B >50%) | 
CC/C=C\CCOC(=O)c1ccccc1O [cis-3-hexynlyl salicylate, 3(Z)-Hexenyl 2-hydroxy benzoate] |  | B (B >50%) |  |  | C (C >20%) |  | Inhibition rate 2W1 (OR2W1; [6]): B (B >50%)
C=C1CCCC(C)(C)C1C=CC(=O)CC (centres unmarked) [γ-methylionone, 1-(2,2-Dimethyl-6-methylencyclohexyl)-1-penten-3-one] | 50 to 80% | C (C >20%) | 50 to 80% | 50 to 80% |  |  | 
COC(C)(C)CCCC(C)CC=O (centres unmarked) [methoxycitronellal, 7-Methoxy-3,7-dimethyl-octanal] | 20 to 50% | C (C >20%) | 50 to 80% | 20 to 50% |  |  | 
CC(=O)OCCC(C)CCC=C(C)C (centres unmarked) [citronellyl acetate, 3,7-Dimethyl-6-octen-1-yl acetate] | 20 to 50% |  | 20 to 50% | 20 to 50% |  |  | 
O=C1CCCCCCC/C=C\CCCCCCC1 [civetone, (Z)-Cycloheptadeca-9-en-1-one] |  | B (B >50%) |  |  |  |  | inhibition at 100 µM (OR2W1; HEK293, 4 h): > 80%; inhibition at 100 µM (OR5K1; HEK293, 4 h): 50 to 80%; inhibition at 100 µM (OR8H1; HEK293, 4 h): 50 to 80%
CC(CC=O)CCCC(C)(C)O (centres unmarked) [hydroxycitronellal, 7-Hydroxy-3,7-dimethyl-octanal] | 20 to 50% | B (B >50%) | < 20% | 20 to 50% |  |  | 
CCC(O)COC1CCCCC1C(C)(C)C (centres unmarked) [Ambercore, 1-(2-tert-Butylcyclohexyloxy)-2-butanol] | > 80% | B (B >50%) | 50 to 80% | > 80% |  |  | 
C=CC(C)=CCC(C)(C)C(=NO)C(C)C [Labienoxime, 2,4,4,7-Tetramethyl-6,8-nonadiene-3-one oxime] | 50 to 80% |  | < 20% | 20 to 50% |  |  | 
CCCCCCOC(=O)c1ccccc1O [hexyl salicylate, n-Hexyl-o-hydroxy benzoate] |  | C (C >20%) |  |  |  |  | Inhibition rate 2W1 (OR2W1; [6]): B (B >50%)
CC(=O)C=CC1=C(C)CCCC1(C)C [β-ionone, 4-(2,6,6-Trimethyi-1-cyclohexen-1-yl)-3-buten-2-one] |  |  |  |  | B (B >50%) | A (A >80%) | Inhibition rate 2W1 (OR2W1; [6]): C (C >20%)
CC(C)=CCCC1=CCC(C=O)CC1 (centres unmarked) [myrac aldehyde, 4-(4-Methyl-3-penten-1-yl)-3-cyclohexene-1-carboxaldehyde] | > 80% |  | < 20% | 20 to 50% |  |  | 
CC(=O)OC(C)(C)Cc1ccccc1 [dimethylbenzylcarbinyl acetate, α,α-Dimethyl phenylethyl acetate] |  | C (C >20%) |  |  | C (C >20%) | B (B >50%) | 
CC(C)Cc1ccc(CC(C)C=O)cc1 (stereo not drawn) [suzaral, α-Methyl-4-(2-methylpropyl)-benzenepropanal] | 20 to 50% |  | < 20% | 50 to 80% |  |  | 
C=C(C)C1CC=C(C=O)CC1 (centres unmarked) [perillaldehyde, 4-(1-Methylethenyl)-1-cyclohexene-1-carboxyaldehyde] | < 20% |  | 20 to 50% | 50 to 80% |  |  | 
C=CCOC(=O)CCC1CCCCC1 [Allyl cyclohexylpropionate] |  |  |  |  | C (C >20%) | C (C >20%) | Inhibition rate 2W1 (OR2W1; [6]): C (C >20%)
CCOC(=O)C1OC1(C)c1ccccc1 (centres unmarked) [Ethyl-2,3-epoxy-3-methyl-3-phenyl propionate] |  | C (C >20%) |  |  | C (C >20%) | B (B >50%) | 
4(3)-(4-Methyl-3-pentenyl)-3-cyclohexenylmethyl acetate [myraldyl acetate] |  | C (C >20%) |  |  |  | C (C >20%) | Inhibition rate 2W1 (OR2W1; [6]): C (C >20%)
CC(C)(C)c1ccc(CCC=O)cc1 [bourgeonal, 3-(4-tert-butylphenyl)propionaldehyde] | > 80% |  | 50 to 80% | < 20% |  |  | 
CC1=CC(C)C(C=O)CC1 (centres unmarked) [Triplal, Dimethyl-3-cyclohexene-1-carboxaldehyde] |  | C (C >20%) |  |  |  | C (C >20%) | Inhibition rate 2W1 (OR2W1; [6]): C (C >20%)
